According to PubChem BioAssay AID256 (DTP/NCI, 2004):
“And” between values parts separate entries of the source, which are not always exact repeats. Identical values can stand only once. Toxic doses and inconclusive results are not listed. Rule for the calls: active = survival T/C of 150% or more; inactive = T/C below 125% in these data.

System: CD2F1 mice, L1210 leukemia ip, survival T/C
Assay: NCI In Vivo Anticancer Drug Screen. Data for tumor model L1210 Leukemia (intraperitoneal) in CD2F1 (CDF1) mice
Details: higher = longer survival
Method in brief: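 Compound-dosed mice with transplantable tumor versus matched vehicle controls; endpoint ratio T/C reported.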

[1] = endpoint: mean survival time, dose: 100.0 mg/kg/injection, schedule: Q01DX009 (ip), vehicle: saline with Tween-80
[2] = endpoint: mean survival time, dose: 200.0 mg/kg/injection, schedule: Q01DX009 (ip), vehicle: saline with Tween-80
[3] = endpoint: mean survival time, dose: 400.0 mg/kg/injection, schedule: Q01DX009 (ip), vehicle: saline with Tween-80
[4] = endpoint: mean survival time, dose: 100.0 mg/kg/injection, schedule: Q04DX003 (ip), vehicle: saline with Tween-80
[5] = endpoint: mean survival time, dose: 200.0 mg/kg/injection, schedule: Q04DX003 (ip), vehicle: saline with Tween-80
[6] = endpoint: mean survival time, dose: 400.0 mg/kg/injection, schedule: Q04DX003 (ip), vehicle: saline with Tween-80
[7] = endpoint: mean survival time, dose: 25.0 mg/kg/injection, schedule: Q04DX003 (ip), vehicle: saline with Tween-80
[8] = endpoint: mean survival time, dose: 50.0 mg/kg/injection, schedule: Q04DX003 (ip), vehicle: saline with Tween-80

Measured: T/C

CC[N+]1(C)C2CCC1CC(O)C2 (stereo not given)
inactive: endpoint: mean survival time, dose: 100.0 mg/kg/injection, schedule: Q04DX002 (ip), vehicle: saline 105 % of control | endpoint: mean survival time, dose: 200.0 mg/kg/injection, schedule: Q04DX002 (ip), vehicle: saline 102 % of control

COC1OC(C(COC(C)=O)OC(C)=O)C(OC(C)=O)C(OC(C)=O)C1OC(C)=O (stereo not given)
inactive: [1] 95 % of control | [2] 102 % of control | [3] 104 % of control

CC1=CC(=O)C(CCC(=O)O)C(C)(C)C1 (stereo not given)
inactive: endpoint: mean survival time, dose: 100.0 mg/kg/injection, schedule: Q04DX002 (ip), vehicle: saline with Tween-80 91 % of control | endpoint: mean survival time, dose: 200.0 mg/kg/injection, schedule: Q04DX002 (ip), vehicle: saline with Tween-80 94 % of control | endpoint: mean survival time, dose: 400.0 mg/kg/injection, schedule: Q04DX002 (ip), vehicle: saline with Tween-80 94 % of control

O=C1NC(=O)C2CCCCC12 (stereo not given)
inactive: [1] 100 % of control | [4] 97 % of control | [2] 95 % of control | [5] 101 % of control | [3] 95 % of control | [6] 95 % of control

COC1OC(CO)C(O)C(OC)C1OC (stereo not given) (tested in a mixture with another compound)
inactive: endpoint: mean survival time, dose: 100.0 mg/kg/injection, schedule: Q01DX001 (ip), vehicle: saline 100 % of control | endpoint: mean survival time, dose: 200.0 mg/kg/injection, schedule: Q01DX001 (ip), vehicle: saline 100 % of control | endpoint: mean survival time, dose: 400.0 mg/kg/injection, schedule: Q01DX001 (ip), vehicle: saline 100 % of control

Cc1cc(C)c(CC2(C)SCCCS2)c(C)c1
inactive: endpoint: median survival time, dose: 50.0 mg/kg/injection, schedule: Q04DX002 (ip), vehicle: saline with Tween-80 100 % of control | endpoint: median survival time, dose: 100.0 mg/kg/injection, schedule: Q04DX002 (ip), vehicle: saline with Tween-80 100 % of control | endpoint: median survival time, dose: 200.0 mg/kg/injection, schedule: Q04DX002 (ip), vehicle: saline with Tween-80 100 % of control | endpoint: median survival time, dose: 400.0 mg/kg/injection, schedule: Q04DX002 (ip), vehicle: saline with Tween-80 110 % of control

[Cl][Pt+2][Cl].[NH-]c1ccc(F)cc1.[NH-]c1ccc(F)cc1
inactive: endpoint: mean survival time, dose: 3.13 mg/kg/injection, schedule: Q04DX003 (ip), vehicle: distilled water + Tween-80 102 % of control | endpoint: mean survival time, dose: 6.25 mg/kg/injection, schedule: Q04DX003 (ip), vehicle: distilled water + Tween-80 104 % of control | endpoint: mean survival time, dose: 12.5 mg/kg/injection, schedule: Q04DX003 (ip), vehicle: distilled water + Tween-80 102 % of control | endpoint: mean survival time, dose: 25.0 mg/kg/injection, schedule: Q04DX003 (ip), vehicle: distilled water + Tween-80 108 % of control | endpoint: mean survival time, dose: 50.0 mg/kg/injection, schedule: Q04DX003 (ip), vehicle: distilled water + Tween-80 108 % of control | endpoint: mean survival time, dose: 100.0 mg/kg/injection, schedule: Q04DX003 (ip), vehicle: distilled water + Tween-80 93 % of control

CC(=O)Nc1ccc2c(c1)C(=O)c1cc(NC(C)=O)ccc1-2
inactive: endpoint: mean survival time, dose: 100.0 mg/kg/injection, schedule: Q01DX001 (ip), vehicle: saline with Tween-80 98 % of control | endpoint: mean survival time, dose: 200.0 mg/kg/injection, schedule: Q01DX001 (ip), vehicle: saline with Tween-80 111 % of control | endpoint: mean survival time, dose: 400.0 mg/kg/injection, schedule: Q01DX001 (ip), vehicle: saline with Tween-80 98 % of control

C1=Nc2c(ccc3ccccc23)CS1
inactive: endpoint: mean survival time, dose: 25.0 mg/kg/injection, schedule: Q04DX002 (ip), vehicle: other 91 % of control | endpoint: mean survival time, dose: 50.0 mg/kg/injection, schedule: Q04DX002 (ip), vehicle: other 95 % of control | endpoint: mean survival time, dose: 100.0 mg/kg/injection, schedule: Q04DX002 (ip), vehicle: other 100 % of control

Cc1ccc(N=Nc2c(N)nc(N)nc2N)cc1C
inactive: [4] 96 % of control | [5] 102 % of control | [6] 108 % of control

O=N[O-].O=N[O-].[NH-]CC[NH-].[Pt+2]
inactive: [7] 101 % of control | [8] 98 % of control | [4] 93 % of control

CCCCNC(C)(C)C(SSSC(c1ccco1)C(C)(C)NCCCC)c1ccco1 (stereo not given)
inactive: endpoint: mean survival time, dose: 12.5 mg/kg/injection, schedule: Q01DX009 (ip), vehicle: saline with Tween-80 102 % of control | endpoint: mean survival time, dose: 25.0 mg/kg/injection, schedule: Q01DX009 (ip), vehicle: saline with Tween-80 96 % of control | endpoint: mean survival time, dose: 50.0 mg/kg/injection, schedule: Q01DX009 (ip), vehicle: saline with Tween-80 98 % of control

CNC(=O)c1n[nH]c(C)c1N
inactive: endpoint: mean survival time, dose: 25.0 mg/kg/injection, schedule: Q01DX009 (ip), vehicle: water 97 % of control | endpoint: mean survival time, dose: 50.0 mg/kg/injection, schedule: Q01DX009 (ip), vehicle: water 98 % of control | endpoint: mean survival time, dose: 100.0 mg/kg/injection, schedule: Q01DX009 (ip), vehicle: water 101 % of control | endpoint: mean survival time, dose: 200.0 mg/kg/injection, schedule: Q01DX009 (ip), vehicle: water 98 % of control | endpoint: mean survival time, dose: 400.0 mg/kg/injection, schedule: Q01DX009 (ip), vehicle: water 101 % of control

N#CC1C(=O)NC(O)(c2ccccc2)C1c1ccccc1 (stereo not given)
inactive: [7] 105 % of control | [8] 105 % of control | [4] 97 % of control and 105 % of control
